Here are results for two compounds from BindingDB's records for doi:10.1021/jm058033i (University of Regensburg, 2006).

The nature of assay [1]: Antiproliferative activity against mouse 32Dcl3 cell line expressing FLT3-ITD.
Assay [2] in a line: Inhibition of DNA synthesis in IL3 dependent FDC-P1 cells expressing wild-type KIT.
Assay [3] can be described thus: Antiproliferative activity against mouse 32Dcl3 cell line expressing wild-type FLT3.
Assay [4] in a line: Inhibition of DNA synthesis in IL3 dependent FDC-P1 cells expressing KIT V558D mutant.

As a reminder, the IC50 is the concentration that inhibits the measured activity by half. Low readings indicate greater potency, high ones weaker potency.

On to `O=C(c1cc2cc(O)ccc2[nH]1)c1cc2cc(O)ccc2[nH]1` [Bis-(5-hydroxy-1H-indol-2-yl)-methanone], for which the IC50 is 100 nM in assay [1], 500 nM in assay [2], 100 nM in assay [3] and 500 nM in assay [4].
Turning to `Cc1cccc2[nH]c(C(=O)c3cc4cc(O)ccc4[nH]3)cc12` [(5-Hydroxy-1H-indol-2-yl)-(4-methyl-1H-indol-2-yl)-methanone], the IC50 in assay [2] and in assay [4] was 500 nM each time.
